Assay results from ChEMBL document CHEMBL1201862, “PubChem BioAssay data set” (2004).
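The compound was tested at five concentrations on cells cultured in 96-well plates, with a 48-hour exposure period. The concentration for 50% growth inhibition is given as GI50.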 Calls of active or inactive are those of the source. Cut-off read from the data, not from the text of the source: active = GI50 up to about 1.1 µM and inactive = higher.

Legend:
Assay in all cases: NCI-60 cell line screen, 48 h
SNB-19 = system: SNB-19
CCRF-CEM = system: CCRF-CEM
SW-620 = system: SW-620
HOP-18 = system: HOP-18
A498 = system: A498
RPMI-8226 = system: RPMI-8226
HCT-15 = system: HCT-15
UACC-62 = system: UACC-62
LOX IMVI = system: LOX IMVI
DMS-114 = system: DMS-114
HL-60 = system: HL-60
TK-10 = system: TK-10
KM-20L2 = system: KM-20L2
UO-31 = system: UO-31
A549 = system: A549
U-251 = system: U-251
SK-MEL-5 = system: SK-MEL-5
MOLT-4 = system: MOLT-4
OVCAR-5 = system: OVCAR-5
OVCAR-3 = system: OVCAR-3
CAKI-1 = system: CAKI-1
OVCAR-4 = system: OVCAR-4
DMS-273 = system: DMS-273
K562 = system: K562
KM12 = system: KM12
NCI-H226 = system: NCI-H226
LXFL 529 = system: LXFL 529
ACHN = system: ACHN
UACC-257 = system: UACC-257
NCI-H23 = system: NCI-H23
IGROV-1 = system: IGROV-1
HT-29 = system: HT-29
Malme-3M = system: Malme-3M
M14 = system: M14
HOP-62 = system: HOP-62
HCC 2998 = system: HCC 2998
DLD-1 = system: DLD-1
XF498 = system: XF498
SK-OV-3 = system: SK-OV-3
NCI-H460 = system: NCI-H460
SF-295 = system: SF-295
EKVX = system: EKVX
SK-MEL-28 = system: SK-MEL-28
SNB-78 = system: SNB-78
HOP-92 = system: HOP-92
NCI-H522 = system: NCI-H522
M19-MEL = system: M19-MEL
COLO 205 = system: COLO 205
SF-539 = system: SF-539
SF-268 = system: SF-268
786-0 = system: 786-0
SK-MEL-2 = system: SK-MEL-2
OVCAR-8 = system: OVCAR-8
RXF 393 = system: RXF 393
SNB-75 = system: SNB-75
HCT-116 = system: HCT-116
SR = system: SR
SN12C = system: SN12C

CC1=Nn2c(nnc2-c2ccc(Cl)cc2)NC(C)(C)C1
GI50 (SNB-19): > 100 µM (inactive)
GI50 (CCRF-CEM): > 100 µM (inactive)
GI50 (SW-620): > 100 µM (inactive)
GI50 (HOP-18): > 100 µM (inactive)
GI50 (A498): > 100 µM (inactive)
GI50 (RPMI-8226): > 100 µM (inactive)
GI50 (HCT-15): > 100 µM
GI50 (UACC-62): > 100 µM (inactive)
GI50 (LOX IMVI): > 100 µM (inactive)
GI50 (DMS-114): > 100 µM (inactive)
GI50 (HL-60): > 100 µM (inactive)
GI50 (TK-10): > 100 µM (inactive)
GI50 (KM-20L2): > 100 µM (inactive)
GI50 (UO-31): > 100 µM (inactive)
GI50 (A549): > 100 µM (inactive)
GI50 (U-251): > 100 µM (inactive)
GI50 (SK-MEL-5): > 100 µM (inactive)
GI50 (MOLT-4): > 100 µM (inactive)
GI50 (OVCAR-5): > 100 µM (inactive)
GI50 (OVCAR-3): > 100 µM (inactive)
GI50 (CAKI-1): > 100 µM (inactive)
GI50 (OVCAR-4): > 100 µM (inactive)
GI50 (DMS-273): > 100 µM (inactive)
GI50 (K562): > 100 µM (inactive)
GI50 (KM12): > 100 µM (inactive)
GI50 (NCI-H226): > 100 µM (inactive)
GI50 (LXFL 529): > 100 µM (inactive)
GI50 (ACHN): > 100 µM (inactive)
GI50 (UACC-257): > 100 µM (inactive)
GI50 (NCI-H23): > 100 µM (inactive)
GI50 (IGROV-1): > 100 µM (inactive)
GI50 (HT-29): > 100 µM (inactive)
GI50 (Malme-3M): > 100 µM (inactive)
GI50 (M14): > 100 µM (inactive)
GI50 (HOP-62): > 100 µM (inactive)
GI50 (HCC 2998): > 100 µM (inactive)
GI50 (DLD-1): > 100 µM (inactive)
GI50 (XF498): > 100 µM (inactive)
GI50 (SK-OV-3): > 100 µM (inactive)
GI50 (NCI-H460): > 100 µM (inactive)
GI50 (SF-295): > 100 µM (inactive)
GI50 (EKVX): > 100 µM (inactive)
GI50 (SK-MEL-28): > 100 µM (inactive)
GI50 (SNB-78): > 100 µM (inactive)
GI50 (HOP-92): > 100 µM (inactive)
GI50 (NCI-H522): > 100 µM (inactive)
GI50 (M19-MEL): > 100 µM (inactive)
GI50 (COLO 205): > 100 µM (inactive)
GI50 (SF-539): > 100 µM (inactive)
GI50 (SF-268): > 100 µM (inactive)
GI50 (786-0): > 100 µM (inactive)
GI50 (SK-MEL-2): > 100 µM (inactive)

CCOC(=O)C(=O)Nc1ccc(Cl)cc1C
GI50 (SNB-19): > 100 µM (inactive)
GI50 (CCRF-CEM): > 100 µM (inactive)
GI50 (SW-620): > 100 µM (inactive)
GI50 (HOP-18): > 100 µM (inactive)
GI50 (OVCAR-8): > 100 µM (inactive)
GI50 (RPMI-8226): > 100 µM (inactive)
GI50 (HCT-15): > 100 µM
GI50 (UACC-62): > 100 µM (inactive)
GI50 (LOX IMVI): > 100 µM (inactive)
GI50 (DMS-114): > 100 µM (inactive)
GI50 (HL-60): > 100 µM (inactive)
GI50 (TK-10): > 100 µM (inactive)
GI50 (KM-20L2): > 100 µM (inactive)
GI50 (UO-31): > 100 µM (inactive)
GI50 (A549): > 100 µM (inactive)
GI50 (U-251): > 100 µM (inactive)
GI50 (SK-MEL-5): > 100 µM (inactive)
GI50 (MOLT-4): > 100 µM (inactive)
GI50 (OVCAR-5): > 100 µM (inactive)
GI50 (OVCAR-3): > 100 µM (inactive)
GI50 (CAKI-1): > 100 µM (inactive)
GI50 (OVCAR-4): > 100 µM (inactive)
GI50 (DMS-273): > 100 µM (inactive)
GI50 (K562): > 100 µM (inactive)
GI50 (KM12): > 100 µM (inactive)
GI50 (RXF 393): > 100 µM (inactive)
GI50 (NCI-H226): > 100 µM (inactive)
GI50 (LXFL 529): > 100 µM (inactive)
GI50 (ACHN): > 100 µM (inactive)
GI50 (UACC-257): > 100 µM (inactive)
GI50 (NCI-H23): > 100 µM (inactive)
GI50 (IGROV-1): > 100 µM (inactive)
GI50 (HT-29): > 100 µM (inactive)
GI50 (Malme-3M): > 100 µM (inactive)
GI50 (M14): > 100 µM (inactive)
GI50 (HOP-62): > 100 µM (inactive)
GI50 (HCC 2998): > 100 µM (inactive)
GI50 (DLD-1): > 100 µM (inactive)
GI50 (XF498): > 100 µM (inactive)
GI50 (SK-OV-3): > 100 µM (inactive)
GI50 (NCI-H460): > 100 µM (inactive)
GI50 (SF-295): > 100 µM (inactive)
GI50 (EKVX): > 100 µM (inactive)
GI50 (SK-MEL-28): > 100 µM (inactive)
GI50 (SNB-78): > 100 µM (inactive)
GI50 (HOP-92): > 100 µM (inactive)
GI50 (NCI-H522): > 100 µM (inactive)
GI50 (M19-MEL): > 100 µM (inactive)
GI50 (SNB-75): > 100 µM (inactive)
GI50 (HCT-116): > 100 µM (inactive)
GI50 (COLO 205): > 100 µM (inactive)
GI50 (SF-539): > 100 µM (inactive)
GI50 (SF-268): > 100 µM (inactive)
GI50 (786-0): > 100 µM (inactive)
GI50 (SK-MEL-2): > 100 µM (inactive)
GI50 (SR): > 100 µM (inactive)
GI50 (SN12C): > 100 µM (inactive)

COc1ccc2c(c1)[n+]([O-])c(C(=O)C/C(=N/NC(=O)c1ccccc1O)C(=O)Nc1ccc(Cl)c(C(F)(F)F)c1)c(C)[n+]2[O-]
GI50 (SNB-19): > 100 µM (inactive)
GI50 (CCRF-CEM): 36.4 µM (inactive)
GI50 (SW-620): 62.1 µM (inactive)
GI50 (HOP-18): 32.6 µM (inactive)
GI50 (OVCAR-8): 43.8 µM (inactive)
GI50 (A498): 53.8 µM (inactive)
GI50 (HCT-15): 43.7 µM
GI50 (UACC-62): > 100 µM (inactive)
GI50 (LOX IMVI): 79.8 µM (inactive)
GI50 (DMS-114): 71.8 µM (inactive)
GI50 (TK-10): 50.5 µM (inactive)
GI50 (KM-20L2): > 100 µM (inactive)
GI50 (UO-31): 20.7 µM (inactive)
GI50 (A549): > 100 µM (inactive)
GI50 (U-251): > 100 µM (inactive)
GI50 (SK-MEL-5): 45.8 µM (inactive)
GI50 (MOLT-4): 37.3 µM (inactive)
GI50 (OVCAR-5): 45.4 µM (inactive)
GI50 (OVCAR-3): 28.9 µM (inactive)
GI50 (OVCAR-4): 87.9 µM (inactive)
GI50 (DMS-273): 49.9 µM (inactive)
GI50 (K562): 64.4 µM (inactive)
GI50 (KM12): 89.1 µM (inactive)
GI50 (RXF 393): > 100 µM (inactive)
GI50 (NCI-H226): > 100 µM (inactive)
GI50 (LXFL 529): 51.4 µM (inactive)
GI50 (ACHN): 68.9 µM (inactive)
GI50 (UACC-257): 91.6 µM (inactive)
GI50 (NCI-H23): 47.5 µM (inactive)
GI50 (IGROV-1): 44 µM (inactive)
GI50 (HT-29): > 100 µM (inactive)
GI50 (Malme-3M): 49.7 µM (inactive)
GI50 (M14): 51.4 µM (inactive)
GI50 (HOP-62): 37.8 µM (inactive)
GI50 (HCC 2998): 32.7 µM (inactive)
GI50 (DLD-1): 37.4 µM (inactive)
GI50 (XF498): > 100 µM (inactive)
GI50 (SK-OV-3): > 100 µM (inactive)
GI50 (NCI-H460): 46.5 µM (inactive)
GI50 (SF-295): 72.3 µM (inactive)
GI50 (EKVX): 48.9 µM (inactive)
GI50 (SK-MEL-28): > 100 µM (inactive)
GI50 (SNB-78): > 100 µM (inactive)
GI50 (HOP-92): > 100 µM (inactive)
GI50 (NCI-H522): 39.6 µM (inactive)
GI50 (M19-MEL): 52.2 µM (inactive)
GI50 (SNB-75): 66.5 µM (inactive)
GI50 (HCT-116): 48.2 µM (inactive)
GI50 (COLO 205): 71 µM (inactive)
GI50 (SF-539): > 100 µM (inactive)
GI50 (SF-268): 54.8 µM (inactive)
GI50 (786-0): 54.5 µM (inactive)
GI50 (SK-MEL-2): > 100 µM (inactive)
GI50 (SN12C): 47.2 µM (inactive)
